Read-outs that look alike come from different tables or passages of the source.

The results in this text go back to patent US20040071967A1, “Microcapsule containing phase-change material and nucleating agent” (priority 2000, published 2004).

What all share (assay type): physicochemical
Data set [1] can be described thus: Dynamic surface tension of aqueous solutions, maximum bubble pressure method. The settings on record: for γ (0.1% solution) 1 b/s / γ (0.1% solution) 6 b/s / limiting γ 0.1 b/s / limiting γ 20 b/s / pC20: Tables 5 and 6; for limiting γ 0.1 b/s / limiting γ 20 b/s: lowest surface tension in water; for pC20: negative logarithm of molar concentration giving 52.1 dyne/cm at 0.1 b/s. As to the method:
In practical terms, high bubble rates correspond to high printing speeds in lithographic printing, high spray or roller velocities in coating applications, and rapid application rates for agricultural products. […] This value is a measure of the efficiency of a surfactant. […] The critical aggregation concentrations (solubility limit or critical micelle concentration) were determined by intersection of the linear portion of a surface tension/In concentration curve with the limiting surface tension as is described in many textbooks. The limiting surface tensions at 0.1 and 20 bubbles/second (b/s) represent the lowest surface tensions in water which can be achieved at the given surface creation rate for a given surfactant regardless of the amount of surfactant used. These values give information about the relative ability to a surfactant to reduce surface defects under near-equilibrium condition (0.1 b/s) through very dynamic conditions (20 b/s). Lower surface tensions would allow the elimination of defects upon application of a formulation onto lower energy surfaces.

A short description of data set [2]: Critical aggregation concentration (solubility limit or critical micelle concentration). As to the method:
The critical aggregation concentrations (solubility limit or critical micelle concentration) were determined by intersection of the linear portion of a surface tension/In concentration curve with the limiting surface tension as is described in many textbooks. The limiting surface tensions at 0.1 and 20 bubbles/second (b/s) represent the lowest surface tensions in water which can be achieved at the given surface creation rate for a given surfactant regardless of the amount of surfactant used. These values give information about the relative ability to a surfactant to reduce surface defects under near-equilibrium condition (0.1 b/s) through very dynamic conditions (20 b/s). Lower surface tensions would allow the elimination of defects upon application of a formulation onto lower energy surfaces.

Data set [3] can be described thus: Ross-Miles foam test based upon ASTM D 1173-53, 0.1 wt % solution. To be noted: Tables 5 and 6; for RM Foam initial: initial foam height. How it is done: The foam height is measured at the completion of the addition (“Initial Foam Height”) and the time required for the foam to dissipate is recorded (“Time to 0 Foam”). This test provides a comparison between the foaming characteristics of various surfactant solutions. In general, in coatings, inks, and agricultural formulations, foam is undesirable because is complicates handling and can lead to coating and print defects, and to inefficient application of agricultural materials.

Take “3.5 mole ethoxylate of 2,4,7,9-tetramethyl-5-decyne-4,7-diol capped with 2 moles of propylene oxide [Example 3]”: the “γ (0.1% solution) 1 b/s” value in data set [1] (1 b/s) is given as 33.6 dyne/cm. Further, the “γ (0.1% solution) 6 b/s” value in data set [1] (6 b/s) amounted to 36.6 dyne/cm. For the same substance, in data set [1] (0.1 b/s), the “limiting γ 0.1 b/s” value was determined as 29.3 dyne/cm. Further, the “limiting γ 20 b/s” value in data set [1] (20 b/s) stood at 31.4 dyne/cm. Further, the pC20 in data set [1] is reported as 4.07. Further, the “Sol Limit” value in data set [2] stood at 0.21 wt %. For the same substance, in data set [3], the “RM Foam initial” value came out at 1.0 cm. Besides, the “RM Foam (t to 0)” value in data set [3] (time to 0 foam) is “(10 s)”.

On to “10 mole EO/2 mole PO block derivative of 2,4,7,9-tetramethyl-5-decyne-4,7-diol [Example 5]”, for which the “γ (0.1% solution) 1 b/s” value in data set [1] (1 b/s) is on record as 42.0 dyne/cm. Moreover, the “γ (0.1% solution) 6 b/s” value in data set [1] (6 b/s) was determined as 44.3 dyne/cm. Moreover, the “Dynamic Surface Tension” value in data set [1] (0.1 wt % in distilled water, 0.1 b/s) turned out to be 40.5 dyne/cm; in data set [1] (0.1 wt % in distilled water, 1 b/s) it was 42.0 dyne/cm; in data set [1] (0.1 wt % in distilled water, 6 b/s), 44.3 dyne/cm; in data set [1] (0.1 wt % in distilled water, 15 b/s), 47.1 dyne/cm; in data set [1] (0.1 wt % in distilled water, 20 b/s), 48.1 dyne/cm; in data set [1] (0.5 wt % in distilled water, 0.1 b/s), 32.4 dyne/cm. In addition, the “Dynamic Surface Tension” value in data set [1] (0.5 wt % in distilled water, 1 b/s) is on record as 33.6 dyne/cm; in data set [1] (0.5 wt % in distilled water, 6 b/s), 35.1 dyne/cm; in data set [1] (0.5 wt % in distilled water, 15 b/s), 36.6 dyne/cm; in data set [1] (0.5 wt % in distilled water, 20 b/s), 37.2 dyne/cm; in data set [1] (1.0 wt % in distilled water, 0.1 b/s), 29.8 dyne/cm; in data set [1] (1.0 wt % in distilled water, 1 b/s), 30.5 dyne/cm. In addition, the “Dynamic Surface Tension” value in data set [1] (1.0 wt % in distilled water, 6 b/s) was 32.1 dyne/cm; in data set [1] (1.0 wt % in distilled water, 15 b/s), 33.0 dyne/cm; in data set [1] (1.0 wt % in distilled water, 20 b/s) it was 33.7 dyne/cm. Moreover, the “limiting γ 0.1 b/s” value in data set [1] (0.1 b/s) is 29.8 dyne/cm. Besides, the “limiting γ 20 b/s” value in data set [1] (20 b/s) turned out to be 33.7 dyne/cm. The pC20 in data set [1] is listed as 4.05. Also, the “Sol Limit” value in data set [2] (water, Tables 5 and 6, unit printed only in Table 7 footnote) is “(0.78) wt %”. Moreover, the “RM Foam (foam height remaining)” value in data set [3] (cm after 5 minutes) is “(1.3) cm”. In data set [3], the “RM Foam initial” value is listed as 2.1 cm.
